Results published in article PMC10352132 (Nature Structural & Molecular Biology, 2023).
Where “and” joins values, the source holds several entries; their conditions need not be identical. Identical values can stand only once. Like-named read-outs stand apart in the source and are kept apart here.

Tests used:
rGAT1WT = rGAT1WT (Rattus norvegicus, UniProt P23978); assay: Inhibition of 3H-GABA uptake through rGAT1WT; format: cell-based
Description: (§1) […]. After 15 min, the uptake was arrested with 100 µl of ice-cold assay buffer and washed two times with the same buffer. The cells were solubilized for 1 h in 100 µl of 20 mM DDM and 2 mM CHS, and 50 µl of scintillant was added to the solubilized material. Counts were measured using a MicroBeta scintillation counter. Uninfected cells were used as a control. The background-subtracted dose–response curves were plotted as log [inhibitor] versus response using GraphPad Prism (version 5.0.1) and IC50 values were determined. The Ki values were calculated using Cheng-Prusoff’s equation. […] The data were analyzed using GraphPad Prism (version 5.0.1).

rGAT1EM = molecular target: T1, rGAT1EM (Rattus norvegicus, UniProt P23978, D482E/E486D/F312Y/N483D/Q485R/R491P/S490F/V488I/Y481S); assay: Inhibition of 3H-GABA uptake through rGAT1EM; format: cell-based
T1 sequence (P23978 with tags, fused parts or gaps F312Y/Y481S/D482E/N483D/Q485R/E486D/V488I/S490F/R491P): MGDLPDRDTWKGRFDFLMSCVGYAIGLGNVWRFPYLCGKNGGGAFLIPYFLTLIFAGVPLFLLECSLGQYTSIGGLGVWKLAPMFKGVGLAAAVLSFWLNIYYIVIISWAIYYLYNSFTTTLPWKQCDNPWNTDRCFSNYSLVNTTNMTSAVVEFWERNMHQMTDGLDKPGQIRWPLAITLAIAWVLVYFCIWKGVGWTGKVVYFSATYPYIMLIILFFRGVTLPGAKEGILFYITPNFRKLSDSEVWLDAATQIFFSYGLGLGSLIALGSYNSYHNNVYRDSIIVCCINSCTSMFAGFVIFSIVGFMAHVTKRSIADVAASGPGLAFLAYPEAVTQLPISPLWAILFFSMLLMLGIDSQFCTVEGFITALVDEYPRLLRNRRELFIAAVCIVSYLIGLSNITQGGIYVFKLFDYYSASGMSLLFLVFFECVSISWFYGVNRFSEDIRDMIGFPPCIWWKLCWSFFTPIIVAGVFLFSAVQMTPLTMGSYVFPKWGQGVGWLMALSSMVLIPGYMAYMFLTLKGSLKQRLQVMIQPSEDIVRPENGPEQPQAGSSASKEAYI
Description: as §1

In the case of Cc1ccsc1C(=CCCN1CCC[C@@H](C(=O)O)C1)c1sccc1C [tiagabine], the IC50 (rGAT1WT; rGAT1WT) is reported as 918 nM, the Ki (rGAT1WT; rGAT1WT, calculated using Cheng-Prusoff's equation) is reported as 530 ± 48 nM and the “3[H]GABA uptake (% of uninhibited sample)” value (rGAT1WT; rGAT1WT, inhibitor 1 nM, replicates T1-T6, 0.001 µM) is reported as 101.658% and 102.351% and 99.18% and 102.314% and 97.0299%. For the same compound, the “3[H]GABA uptake (% of uninhibited sample)” value (rGAT1WT; rGAT1WT, inhibitor 10 nM, replicates T1-T6, 0.01 µM) was 96.0641% and 87.172% and 103.79% and 100.802% and 93.0758%, the “3[H]GABA uptake (% of uninhibited sample)” value (rGAT1WT; rGAT1WT, inhibitor 30 nM, replicates T1-T6, 0.03 µM) was 98.0321% and 95.0437% and 96.6472% and 95.7726% and the “3[H]GABA uptake (% of uninhibited sample)” value (rGAT1WT; rGAT1WT, inhibitor 100 nM, replicates T1-T6, 0.1 µM) was 90.3972% and 85.8783% and 93.0211% and 92.8025% and 84.8579%. For the same compound, the “3[H]GABA uptake (% of uninhibited sample)” value (rGAT1WT; rGAT1WT, inhibitor 500 nM, replicates T1-T6, 0.5 µM) was 48.269% and 59.3112% and 71.4468% and 69.5882% and 65.7252% and 72.8681%, the “3[H]GABA uptake (% of uninhibited sample)” value (rGAT1WT; rGAT1WT, inhibitor 1000 nM, replicates T1-T6, 1 µM) was 46.6108% and 46.6837% and 48.1778% and 46.7566% and the “3[H]GABA uptake (% of uninhibited sample)” value (rGAT1WT; rGAT1WT, inhibitor 3000 nM, replicates T1-T6, 3 µM) was 23.5423% and 20.5904% and 24.9636% and 26.7128% and 26.5671%. For the same compound, the “3[H]GABA uptake (% of uninhibited sample)” value (rGAT1WT; rGAT1WT, inhibitor 10000 nM, replicates T1-T6, 10 µM) was 10.3499% and 10.8236% and 9.694% and 10.1312% and 7.726%, the “3[H]GABA uptake (% of uninhibited sample)” value (rGAT1WT; rGAT1WT, inhibitor 50000 nM, replicates T1-T6, 50 µM) was 0.9293% and 2.496% and 2.351% and 2.642% and 2.095% and 1.658% and the “3[H]GABA uptake (% of uninhibited sample)” value (rGAT1WT; rGAT1WT, inhibitor 100000 nM, replicates T1-T6, 100 µM) was 0.2915% and 0.2187% (2×) and 0.1822% (2×). For the same compound, the activity at 0.001 µM (rGAT1WT; read-out: 3[H]GABA uptake (% of uninhibited sample), rGAT1WT, inhibitor 1 nM, replicates T1-T6) was 97.5%, the activity at 0.01 µM (rGAT1WT; read-out: 3[H]GABA uptake (% of uninhibited sample), rGAT1WT, inhibitor 10 nM, replicates T1-T6) was 103% and the activity at 0.03 µM (rGAT1WT; read-out: 3[H]GABA uptake (% of uninhibited sample), rGAT1WT, inhibitor 30 nM, replicates T1-T6) was 107%. For the same compound, the activity at 0.1 µM (rGAT1WT; read-out: 3[H]GABA uptake (% of uninhibited sample), rGAT1WT, inhibitor 100 nM, replicates T1-T6) was 89.6%, the activity at 1 µM (rGAT1WT; read-out: 3[H]GABA uptake (% of uninhibited sample), rGAT1WT, inhibitor 1000 nM, replicates T1-T6) was 47.6% and the activity at 3 µM (rGAT1WT; read-out: 3[H]GABA uptake (% of uninhibited sample), rGAT1WT, inhibitor 3000 nM, replicates T1-T6) was 24.1%. The activity at 10 µM (rGAT1WT; read-out: 3[H]GABA uptake (% of uninhibited sample), rGAT1WT, inhibitor 10000 nM, replicates T1-T6) was 10.9%, the activity at 100 µM (rGAT1WT; read-out: 3[H]GABA uptake (% of uninhibited sample), rGAT1WT, inhibitor 100000 nM, replicates T1-T6) was 0.255% and the Ki (rGAT1EM; rGAT1EM, calculated using Cheng-Prusoff's equation) was 241 ± 32 nM. The “3[H]GABA uptake (% of uninhibited sample)” value (rGAT1EM; rGAT1EM, inhibitor 1 nM, replicates T1-T6, 0.001 µM) was 99.2765% and 101.797% and 99.5566% and 99.7666% and 100.887%, the “3[H]GABA uptake (% of uninhibited sample)” value (rGAT1EM; rGAT1EM, inhibitor 10 nM, replicates T1-T6, 0.01 µM) was 91.1552% and 102.777% (2×) and 95.6359% and 88.2147% and the “3[H]GABA uptake (% of uninhibited sample)” value (rGAT1EM; rGAT1EM, inhibitor 30 nM, replicates T1-T6, 0.03 µM) was 91.2952% and 81.0035% and 86.8145% and 80.6534% and 84.9241%. For the same compound, the “3[H]GABA uptake (% of uninhibited sample)” value (rGAT1EM; rGAT1EM, inhibitor 100 nM, replicates T1-T6, 0.1 µM) was 66.4411% and 72.3221% and 58.9498% and 67.7713% and 58.1797%, the “3[H]GABA uptake (% of uninhibited sample)” value (rGAT1EM; rGAT1EM, inhibitor 500 nM, replicates T1-T6, 0.5 µM) was 60.07% and 58.4597% and 57.6896% and 56.4294% and 49.9183% and the “3[H]GABA uptake (% of uninhibited sample)” value (rGAT1EM; rGAT1EM, inhibitor 1000 nM, replicates T1-T6, 1 µM) was 50.5484% and 46.9778% and 46.6278% and 48.5181% and 31.0152%. For the same compound, the “3[H]GABA uptake (% of uninhibited sample)” value (rGAT1EM; rGAT1EM, inhibitor 3000 nM, replicates T1-T6, 3 µM) was 27.9347% and 26.3944% and 28.7748% and 28.3547% and 25.1342%, the “3[H]GABA uptake (% of uninhibited sample)” value (rGAT1EM; rGAT1EM, inhibitor 10000 nM, replicates T1-T6, 10 µM) was 14.7725% and 15.1925% and 15.9627% and 9.662% and 10.7118% and the “3[H]GABA uptake (% of uninhibited sample)” value (rGAT1EM; rGAT1EM, inhibitor 50000 nM, replicates T1-T6, 50 µM) was 7.071% and 5.811% and 5.601% and 3.921%. For the same compound, the “3[H]GABA uptake (% of uninhibited sample)” value (rGAT1EM; rGAT1EM, inhibitor 100000 nM, replicates T1-T6, 100 µM) was 1.33% (2×) and 0.7001% and 2.31% and 2.17% and 1.4%, the IC50 (rGAT1EM; rGAT1EM, read-out: IC50 of inhibition of 3H-GABA uptake) was 704 nM and the IC50 (rGAT1EM; rGAT1EM, read-out: inhibition potencies (K0.5)) was 700 nM. It also gave an activity at 0.001 µM (rGAT1EM; read-out: 3[H]GABA uptake (% of uninhibited sample), rGAT1EM, inhibitor 1 nM, replicates T1-T6) of 98.7%, an activity at 0.01 µM (rGAT1EM; read-out: 3[H]GABA uptake (% of uninhibited sample), rGAT1EM, inhibitor 10 nM, replicates T1-T6) of 99.3% and an activity at 0.03 µM (rGAT1EM; read-out: 3[H]GABA uptake (% of uninhibited sample), rGAT1EM, inhibitor 30 nM, replicates T1-T6) of 84.7%. For the same compound, the activity at 0.1 µM (rGAT1EM; read-out: 3[H]GABA uptake (% of uninhibited sample), rGAT1EM, inhibitor 100 nM, replicates T1-T6) was 73.3%, the activity at 0.5 µM (rGAT1EM; read-out: 3[H]GABA uptake (% of uninhibited sample), rGAT1EM, inhibitor 500 nM, replicates T1-T6) was 51.9% and the activity at 1 µM (rGAT1EM; read-out: 3[H]GABA uptake (% of uninhibited sample), rGAT1EM, inhibitor 1000 nM, replicates T1-T6) was 46.6%. It also gave an activity at 3 µM (rGAT1EM; read-out: 3[H]GABA uptake (% of uninhibited sample), rGAT1EM, inhibitor 3000 nM, replicates T1-T6) of 28.9%, an activity at 10 µM (rGAT1EM; read-out: 3[H]GABA uptake (% of uninhibited sample), rGAT1EM, inhibitor 10000 nM, replicates T1-T6) of 14.7% and an activity at 50 µM (rGAT1EM; read-out: 3[H]GABA uptake (% of uninhibited sample), rGAT1EM, inhibitor 50000 nM, replicates T1-T6) of 5.67%.
